The text below walks through data of patent publication US9403801B2 (Calitor Sciences, LLC, priority 2014, dated 2016).

pIC50: −log10 of the molar value.

Data set [1] is described as follows: Compound stability in human liver microsomes. It counts as in vitro ADME. Particulars: for CLint scaled at 5 μM: in vivo CLint extrapolated. The method, boiled down: (§1)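 Each compound is tested in duplicate at 5 μM with 0.5 mg/mL microsomal protein plus 1.0 mM NADPH at 37° C, pH 7.4. Depletion over 60 min is followed by LC/MS/MS relative to time zero. CLint is derived by extrapolation.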

Data set [2] in a line: Pharmacokinetics after intravenous and oral administration in rats. It counts as in vivo. Particulars: for Clearance (CL) after iv dosing / AUC(0-t) / half-life / Vd: dose 1 mg/kg (Ex. 27: 0.72 mg/kg), iv dosing; for F: oral bioavailability; for AUC(0-t) / half-life / Vd: rat, plasma; for Vd: read-out: Vss. The method, boiled down:
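Rats were dosed 1 or 2 mg/kg IV or 5 or 10 mg/kg orally, as water solution, HPMC/Tween 80, DMSO/saline, MC suspension or capsule. Plasma was sampled from 0.083 or 0.25 h up to 24 h and quantified by LC/MS/MS in MRM mode with ESI.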

For the next data set, the target named is JAK2 (h) (Homo sapiens (Human), UniProt O60674). The data set is described as follows: JAK2 kinase assay (33P-ATP filter binding, Millipore). It is filed as biochemical. Here is the method: (§2) Kinase assays can be performed by measurement of incorporation of γ-^33P ATP into immobilized myelin basic protein (MBP). High binding white 384 well plates (Greiner) are coated with MBP (Sigma #M−1891) by incubation of 60 μL/well of 20 μg/mL MBP in Tris-buffered saline (TBS; 50 mM Tris pH 8.0, 138 mM NaCl, 2.7 mM KCl) for 24 h at 4° C. Plates are washed 3× with 100 μL TBS. Kinase reactions are carried out in a total volume of 34 μL in kinase buffer (5 mM Hepes pH 7.6, 15 mM NaCl, 0.01% bovine gamma globulin (Sigma #I-5506), 10 mM MgCl2, 1 mM DTT, 0.02% TritonX-100). Compound dilutions are performed in DMSO and added to assay wells to a final DMSO concentration of 1%. Each data point is measured in duplicate, and at least two duplicate assays are performed for each individual compound determination. Enzyme is added to final concentrations of 10 nM or 20 nM, for example. A mixture of unlabeled ATP and γ-^33P ATP is added to start the reaction (2×10^6 cpm of γ-^33P ATP per well (3000 Ci/mmole) and 10 μM unlabeled ATP, typically. The reactions are carried out for 1 h at room temperature with shaking. Plates are washed 7× with TBS, followed by the addition of 50 μL/well scintillation fluid (Wallac). Plates are read using a Wallac Trilux counter. This is only one format of such assays; various other formats are possible, as known to one skilled in the art.
(§3) The above assay procedure can be used to determine the IC50 for inhibition and/or the inhibition constant, Ki. The IC50 is defined as the concentration of compound required to reduce the enzyme activity by 50% under the condition of the assay. The IC50 value is estimated by preparing a 10 point curve using a 1/2 log dilution series (for example, a typical curve may be prepared using the following compound concentrations: 3 μM, 1 μM, 0.3 μM, 0.1 μM, 0.03 μM, 0.01 μM, 0.003 μM, 0.001 μM, 0.0003 μM and 0 μM).
(§4) The kinase assays described herein were performed at Millipore UK Ltd, Dundee Technology Park, Dundee DD2 1SW, UK.

A further data set deals with JAK1 (h) (Homo sapiens (Human), UniProt P23458). Briefly: JAK1 kinase assay (33P-ATP filter binding, Millipore). It is filed as biochemical. Put shortly:
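Radiometric assay of γ-33P-ATP incorporation into plate-immobilised MBP; kinase buffer pH 7.6 with 10 mM MgCl2, 10 μM unlabelled ATP typical, enzyme 10 or 20 nM final, 1% DMSO. Reactions ran 1 h at room temperature before scintillation counting. IC50 from 10-point half-log dilution curve, duplicates.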

The nature of data set [3]: Compound stability in rat liver microsomes. It counts as in vitro ADME. Put shortly: as §1
In general terms: Microsomes from liver hold many membrane-bound enzymes, among them those of drug oxidation.

In another data set the target is JAK3 (h) (Homo sapiens (Human), UniProt P52333). Briefly: JAK3 kinase assay (33P-ATP filter binding, Millipore). It counts as biochemical. Here is the method: as §2, §3, §4
The next data set deals with TYK2 (h) (Homo sapiens (Human), UniProt P29597). The data set is described as follows: TYK2 kinase assay (33P-ATP filter binding, Millipore). It is filed as biochemical. How it is done: as §2, §3, §4
Setting [4] is: human, liver microsomes, pH 7.4, Human liver microsomes 0.5 mg protein/mL, compound 5 μM, NADPH 1.0 mM, 37° C.
Where [5] appears, read: human, liver microsomes, pH 7.4, Human liver microsomes.
The mark [6] stands for this setting: rat, liver microsomes, pH 7.4, Rat liver microsomes 0.5 mg protein/mL, compound 5 μM, NADPH 1.0 mM, 37° C.
[7] abbreviates: rat, liver microsomes, pH 7.4, Rat liver microsomes, in vivo CLint extrapolated.
Where [8] appears, read: pH 7.4, Human liver microsomes 0.5 mg protein/mL, compound 5 μM, NADPH 1.0 mM, 37° C.
The mark [9] stands for this setting: pH 7.4, Rat liver microsomes 0.5 mg protein/mL, compound 5 μM, NADPH 1.0 mM, 37° C.
The mark [10] stands for this setting: pH 7.4, Rat liver microsomes, in vivo CLint extrapolated.

JAK1 (h), sequence (P23458 whole entry): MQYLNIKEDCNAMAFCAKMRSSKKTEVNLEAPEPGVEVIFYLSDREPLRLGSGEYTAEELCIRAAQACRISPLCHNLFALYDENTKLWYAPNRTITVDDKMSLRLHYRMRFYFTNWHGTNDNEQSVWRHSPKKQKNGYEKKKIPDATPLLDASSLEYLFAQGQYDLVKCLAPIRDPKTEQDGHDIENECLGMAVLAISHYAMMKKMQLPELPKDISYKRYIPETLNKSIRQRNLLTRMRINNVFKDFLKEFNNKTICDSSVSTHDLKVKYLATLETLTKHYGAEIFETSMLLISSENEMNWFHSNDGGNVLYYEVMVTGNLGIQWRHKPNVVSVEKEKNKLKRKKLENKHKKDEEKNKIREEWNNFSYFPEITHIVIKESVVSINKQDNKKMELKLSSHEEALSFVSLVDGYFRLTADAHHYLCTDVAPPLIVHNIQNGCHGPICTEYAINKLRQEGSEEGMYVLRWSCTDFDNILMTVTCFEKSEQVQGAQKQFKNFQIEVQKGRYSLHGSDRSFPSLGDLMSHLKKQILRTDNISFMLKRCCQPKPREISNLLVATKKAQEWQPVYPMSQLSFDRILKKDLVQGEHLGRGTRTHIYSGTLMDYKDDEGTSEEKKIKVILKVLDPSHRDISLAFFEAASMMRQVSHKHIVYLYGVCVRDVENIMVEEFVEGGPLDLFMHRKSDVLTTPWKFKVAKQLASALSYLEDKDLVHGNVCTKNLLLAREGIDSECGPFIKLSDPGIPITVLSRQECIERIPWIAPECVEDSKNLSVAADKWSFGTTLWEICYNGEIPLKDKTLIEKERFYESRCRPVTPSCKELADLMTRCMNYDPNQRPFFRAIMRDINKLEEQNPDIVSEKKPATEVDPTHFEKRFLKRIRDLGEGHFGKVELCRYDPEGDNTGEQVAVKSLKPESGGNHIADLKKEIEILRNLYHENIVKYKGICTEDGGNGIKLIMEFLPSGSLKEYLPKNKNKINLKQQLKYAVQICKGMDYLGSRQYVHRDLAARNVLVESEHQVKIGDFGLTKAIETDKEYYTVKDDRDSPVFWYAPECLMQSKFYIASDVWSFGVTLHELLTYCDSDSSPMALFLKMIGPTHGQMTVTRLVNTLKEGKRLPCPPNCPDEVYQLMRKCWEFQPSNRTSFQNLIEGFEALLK
JAK2 (h), sequence (O60674 whole entry): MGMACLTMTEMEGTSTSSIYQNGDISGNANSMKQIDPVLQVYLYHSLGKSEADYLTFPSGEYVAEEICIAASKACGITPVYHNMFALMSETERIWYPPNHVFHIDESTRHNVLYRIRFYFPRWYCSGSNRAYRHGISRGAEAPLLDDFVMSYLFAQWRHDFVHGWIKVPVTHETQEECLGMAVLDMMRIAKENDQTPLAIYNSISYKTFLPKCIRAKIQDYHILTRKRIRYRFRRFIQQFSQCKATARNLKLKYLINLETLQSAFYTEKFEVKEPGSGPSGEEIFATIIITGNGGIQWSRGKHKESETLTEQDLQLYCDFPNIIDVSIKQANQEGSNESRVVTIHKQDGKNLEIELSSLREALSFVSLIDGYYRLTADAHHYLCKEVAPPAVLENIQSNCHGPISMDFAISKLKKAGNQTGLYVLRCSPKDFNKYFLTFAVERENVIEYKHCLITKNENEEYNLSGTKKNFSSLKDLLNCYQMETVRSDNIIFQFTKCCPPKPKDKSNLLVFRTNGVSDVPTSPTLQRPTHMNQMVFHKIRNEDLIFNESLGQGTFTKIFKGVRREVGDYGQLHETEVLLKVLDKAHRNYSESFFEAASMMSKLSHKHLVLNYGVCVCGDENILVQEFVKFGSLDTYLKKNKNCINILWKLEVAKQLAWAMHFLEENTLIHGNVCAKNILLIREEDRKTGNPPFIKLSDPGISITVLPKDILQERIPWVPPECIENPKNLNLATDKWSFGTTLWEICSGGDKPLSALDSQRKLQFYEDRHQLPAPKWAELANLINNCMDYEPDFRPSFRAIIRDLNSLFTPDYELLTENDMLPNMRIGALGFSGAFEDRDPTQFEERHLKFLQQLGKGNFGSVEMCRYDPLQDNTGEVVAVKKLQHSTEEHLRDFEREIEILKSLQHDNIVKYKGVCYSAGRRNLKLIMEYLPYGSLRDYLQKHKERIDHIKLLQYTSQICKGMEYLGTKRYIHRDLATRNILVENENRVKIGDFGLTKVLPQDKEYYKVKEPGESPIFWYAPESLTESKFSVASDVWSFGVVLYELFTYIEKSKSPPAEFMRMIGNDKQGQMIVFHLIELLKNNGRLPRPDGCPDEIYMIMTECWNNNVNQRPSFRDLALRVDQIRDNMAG
JAK3 (h), sequence (P52333 whole entry): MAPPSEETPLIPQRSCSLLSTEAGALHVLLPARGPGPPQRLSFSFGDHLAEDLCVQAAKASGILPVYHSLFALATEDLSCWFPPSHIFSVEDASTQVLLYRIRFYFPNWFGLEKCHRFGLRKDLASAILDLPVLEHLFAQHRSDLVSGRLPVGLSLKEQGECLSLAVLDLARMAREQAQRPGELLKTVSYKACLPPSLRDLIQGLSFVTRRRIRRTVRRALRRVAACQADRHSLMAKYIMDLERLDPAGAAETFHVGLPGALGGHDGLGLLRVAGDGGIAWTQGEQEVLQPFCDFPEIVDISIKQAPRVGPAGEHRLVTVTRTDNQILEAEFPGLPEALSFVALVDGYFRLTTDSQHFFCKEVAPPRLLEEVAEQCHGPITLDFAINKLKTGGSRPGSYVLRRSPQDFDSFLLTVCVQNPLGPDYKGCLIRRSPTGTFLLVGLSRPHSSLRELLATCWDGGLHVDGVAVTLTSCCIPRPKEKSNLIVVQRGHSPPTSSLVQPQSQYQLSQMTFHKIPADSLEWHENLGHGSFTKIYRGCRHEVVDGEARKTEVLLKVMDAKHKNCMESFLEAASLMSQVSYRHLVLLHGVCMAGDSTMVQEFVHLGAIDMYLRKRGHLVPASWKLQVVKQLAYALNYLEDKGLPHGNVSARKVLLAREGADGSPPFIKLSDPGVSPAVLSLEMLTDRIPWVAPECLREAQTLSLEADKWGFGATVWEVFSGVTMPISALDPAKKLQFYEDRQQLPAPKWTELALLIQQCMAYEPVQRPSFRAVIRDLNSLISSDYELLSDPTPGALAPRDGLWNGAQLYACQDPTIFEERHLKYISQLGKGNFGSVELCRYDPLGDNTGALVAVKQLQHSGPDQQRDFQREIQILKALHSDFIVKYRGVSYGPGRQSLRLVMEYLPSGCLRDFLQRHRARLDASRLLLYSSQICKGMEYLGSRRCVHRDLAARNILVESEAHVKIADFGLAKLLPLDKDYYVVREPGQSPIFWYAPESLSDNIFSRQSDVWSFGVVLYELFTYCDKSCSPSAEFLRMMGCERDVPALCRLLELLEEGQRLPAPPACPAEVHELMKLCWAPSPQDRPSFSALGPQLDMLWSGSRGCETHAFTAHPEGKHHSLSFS
TYK2 (h), sequence (P29597 whole entry): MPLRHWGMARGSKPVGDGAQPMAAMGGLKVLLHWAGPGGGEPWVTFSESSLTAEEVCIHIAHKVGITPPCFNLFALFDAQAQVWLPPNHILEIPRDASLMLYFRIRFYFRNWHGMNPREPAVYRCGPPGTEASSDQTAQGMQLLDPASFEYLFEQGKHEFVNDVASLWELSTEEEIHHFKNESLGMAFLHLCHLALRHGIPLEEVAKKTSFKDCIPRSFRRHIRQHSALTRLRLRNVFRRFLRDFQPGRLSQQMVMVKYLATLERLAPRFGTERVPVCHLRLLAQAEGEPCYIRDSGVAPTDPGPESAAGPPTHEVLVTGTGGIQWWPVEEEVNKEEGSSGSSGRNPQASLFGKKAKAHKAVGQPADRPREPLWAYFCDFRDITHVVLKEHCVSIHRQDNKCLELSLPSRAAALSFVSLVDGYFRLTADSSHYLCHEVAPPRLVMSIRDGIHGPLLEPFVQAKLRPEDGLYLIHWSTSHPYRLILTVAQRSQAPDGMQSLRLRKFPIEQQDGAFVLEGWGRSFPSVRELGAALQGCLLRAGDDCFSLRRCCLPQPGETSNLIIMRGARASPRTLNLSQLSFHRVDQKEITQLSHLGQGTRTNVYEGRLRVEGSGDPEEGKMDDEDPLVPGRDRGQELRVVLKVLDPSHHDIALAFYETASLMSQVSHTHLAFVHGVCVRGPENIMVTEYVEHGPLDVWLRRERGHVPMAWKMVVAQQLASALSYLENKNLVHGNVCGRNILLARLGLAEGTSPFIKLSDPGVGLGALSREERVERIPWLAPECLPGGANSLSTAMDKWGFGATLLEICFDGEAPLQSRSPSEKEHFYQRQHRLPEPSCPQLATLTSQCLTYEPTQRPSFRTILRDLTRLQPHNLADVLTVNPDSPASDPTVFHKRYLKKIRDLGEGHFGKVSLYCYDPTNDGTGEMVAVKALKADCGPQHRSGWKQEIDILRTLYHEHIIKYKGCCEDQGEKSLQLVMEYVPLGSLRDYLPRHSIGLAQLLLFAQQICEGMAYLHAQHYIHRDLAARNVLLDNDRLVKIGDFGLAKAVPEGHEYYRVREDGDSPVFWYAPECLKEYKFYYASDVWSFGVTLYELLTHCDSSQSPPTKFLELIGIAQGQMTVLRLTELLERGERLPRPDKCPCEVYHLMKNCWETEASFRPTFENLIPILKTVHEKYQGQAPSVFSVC

As a reminder, the half-life is the time needed for the level to fall by half in the phase considered. Higher therefore signals slow decline. A word on the CLint scaled: it is the rate of metabolic loss divided by the concentration. In general, AUC(0-t) refers to the area under the concentration-time curve up to a stated or last time point. As usually defined, the pIC50 is the negative decadic logarithm of the IC50, by convention in mol/L. On to `CN(c1nc(Nc2cnn(C)c2)ncc1Cl)C1CCC2(CC1)CCN(C(=O)CC#N)C2` (single isomer, unassigned) [Ex. 4A, 3-(8-((5-chloro-2-((1-methyl-1H-pyrazol-4-yl)amino)pyrimidin-4-yl)(methyl)amino)-2-azaspiro[4.5]decan-2-yl)-3-oxopropanenitrile], for which the half-life at 5 μM in data set [1] (setting [4]) worked out at 37.3 min. Also, the CLint scaled at 5 μM in data set [1] (setting [5]) is 46.6 mL/min/kg. Moreover, in data set [2], the “Clearance (CL) after iv dosing” value was 48.8 mL/min/kg, the F is reported as 21.81%, the AUC(0-t) is 345 ng·h/mL and the half-life was 51.6 min. The Vd in data set [2] was found to be 1.38 L/kg. For the same compound, the pIC50 at JAK2 (h) was 7.08. For the same compound, on JAK1 (h), the pIC50 is 7.70. This compound also yielded a half-life at 5 μM in data set [3] (setting [6]) of 12.4 min. For the same compound, the CLint scaled at 5 μM in data set [3] (setting [7]) is 200 mL/min/kg.
Turning to `Cn1cc(Nc2ncc(Cl)c(NC3CCC4CN(C(=O)CC#N)CC4C3)n2)cn1` (centres unmarked) [Ex. 22, 3-(5-((5-chloro-2-((1-methyl-1H-pyrazol-4-yl)amino)pyrimidin-4-yl)amino)hexahydro-1H-isoindol-2(3H)-yl)-3-oxopropanenitrile], the half-life at 5 μM in data set [1] (setting [8]) was 158 min. Also, in data set [1] (pH 7.4, Human liver microsomes), the CLint scaled at 5 μM was 11 mL/min/kg. In data set [2], the “Clearance (CL) after iv dosing” value worked out at 94.8 mL/min/kg, the F worked out at 22.6%, the AUC(0-t) stood at 176 ng·h/mL and the half-life is 25.8 min. The Vd in data set [2] came to 2.02 L/kg. At JAK2 (h), this compound gave a pIC50 of 8.22. Besides, the pIC50 on JAK1 (h) was 8.70. Also, the half-life at 5 μM in data set [3] (setting [9]) came to 12.2 min. The CLint scaled at 5 μM in data set [3] (setting [10]) was 204 mL/min/kg.
For `Cn1cc(Nc2ncc(Cl)c(NC3CCC4(CC3)CCN(C(=O)C(F)(F)F)CC4)n2)cn1` [Ex. 30, 1-(9-((5-chloro-2-((1-methyl-1H-pyrazol-4-yl)amino)pyrimidin-4-yl)amino)-3-azaspiro[5.5]undecan-3-yl)-2,2,2-trifluoroethanone], the half-life at 5 μM in data set [1] (setting [4]) came out at 38 min. In addition, the CLint scaled at 5 μM in data set [1] (setting [5]) was 45.7 mL/min/kg. In data set [2], the “Clearance (CL) after iv dosing” value was 45.7 mL/min/kg, the F is 26.1%, the AUC(0-t) worked out at 370 ng·h/mL and the half-life is 69 min. In addition, in data set [2], the Vd was 4.77 L/kg. The same compound gave a pIC50 at JAK2 (h) of 8.30. Besides, the pIC50 at JAK1 (h) is 9.05. Further, the half-life at 5 μM in data set [3] (setting [6]) amounted to 24.2 min. Further, the CLint scaled at 5 μM in data set [3] (setting [7]) is 103 mL/min/kg.
On to `Cn1cc(Nc2ncc(Cl)c(NC3CCC4(CC3)CCN(C(=O)CC#N)C4)n2)cn1` (single isomer, unassigned) [Ex. 14A, 3-(8-((5-chloro-2-((1-methyl-1H-pyrazol-4-yl)amino)pyrimidin-4-yl)amino)-2-azaspiro[4.5]decan-2-yl)-3-oxopropanenitrile], for which the half-life at 5 μM in data set [1] (setting [4]) was 203 min. Moreover, in data set [1] (setting [5]), the CLint scaled at 5 μM was 8.55 mL/min/kg. Further, the pIC50 at JAK3 (h) is 7.41; on JAK2 (h), 8.30; on JAK1 (h), 9.10; at TYK2 (h), 9.00. In data set [3] (Rat liver microsomes 0.5 mg protein/mL, compound 5 μM, NADPH 1.0 mM, 37° C.), this compound came in with a T1/2 of 10.60 min. For the same compound, in data set [3] (Rat liver microsomes, in vivo CLint extrapolated), the CLint is 234.31 mL/min/kg.
Turning to `Cn1cc(Nc2ncc(Cl)c(NC3CC4CN(C(=O)CC#N)CC4C3)n2)cn1` (centres unmarked) [Ex. 12, 3-(5-((5-chloro-2-((1-methyl-1H-pyrazol-4-yl)amino)pyrimidin-4-yl)amino)hexahydrocyclopenta[c]pyrrol-2(1H)-yl)-3-oxopropanenitrile], the half-life at 5 μM in data set [1] (setting [8]) came to 187 min; in data set [3] (setting [9]) it was 12 min. Also, the CLint scaled at 5 μM was 9.3 mL/min/kg in data set [1] (pH 7.4, Human liver microsomes) and 208 mL/min/kg in data set [3] (setting [10]). Also, the “Clearance (CL) after iv dosing” value in data set [2] turned out to be 121 mL/min/kg. Moreover, in data set [2], the F was found to be 39.2%. Also, the AUC(0-t) in data set [2] was 143 ng·h/mL. In data set [2], this compound gave a half-life of 14.4 min. In addition, the Vd in data set [2] came out at 1.75 L/kg. For the same compound, the pIC50 was 6.44 at JAK3 (h), 7.74 at JAK2 (h), 9.00 on JAK1 (h) and 8.15 at TYK2 (h).
Compound `CC(=O)N1CC2CC(Nc3nc(Nc4cnn(C)c4)ncc3Cl)CC2C1` (centres unmarked) [Ex. 32, 1-(5-((5-chloro-2-((1-methyl-1H-pyrazol-4-yl)amino)pyrimidin-4-yl)amino)hexahydrocyclopenta[c]pyrrol-2(1H)-yl)ethanone] showed a half-life at 5 μM in data set [1] (setting [8]) of 202 min. The CLint scaled at 5 μM in data set [1] (pH 7.4, Human liver microsomes) was 8.6 mL/min/kg. Moreover, in data set [2], the “Clearance (CL) after iv dosing” value turned out to be 62.8 mL/min/kg, the F stood at 41.3%, the AUC(0-t) was found to be 264 ng·h/mL and the half-life is 35.4 min. Moreover, the Vd in data set [2] was found to be 1.65 L/kg. The same compound showed a pIC50 on JAK2 (h) of 7.43. The compound also gave a pIC50 at JAK1 (h) of 8.52. This compound also gave a half-life at 5 μM in data set [3] (setting [9]) of 27.2 min. In data set [3] (setting [10]), the CLint scaled at 5 μM was 91.4 mL/min/kg.
In turn, `Cc1cc(Nc2ncc(Cl)c(NC3CCC4(CC3)CCN(C(=O)CC#N)CC4)n2)nn1C` [Ex. 37, 3-(9-((5-chloro-2-((1,5-dimethyl-1H-pyrazol-3-yl)amino)pyrimidin-4-yl)amino)-3-azaspiro[5.5]undecan-3-yl)-3-oxopropanenitrile] returned a half-life at 5 μM in data set [1] (setting [4]) of 56.2 min. In addition, the CLint scaled at 5 μM in data set [1] (setting [5]) was 30.9 mL/min/kg. Also, in data set [2], the “Clearance (CL) after iv dosing” value was 44.3 mL/min/kg, the F is reported as 31.3%, the AUC(0-t) came to 381 ng·h/mL and the half-life is 71.4 min. Further, the Vd in data set [2] came to 2.97 L/kg. On JAK2 (h), this compound gave a pIC50 of 7.96. On JAK1 (h), the negative logarithm of the IC50 (pIC50) is 8.30. For the same compound, the half-life at 5 μM in data set [3] (setting [6]) amounted to 68.9 min. In addition, the CLint scaled at 5 μM in data set [3] (setting [7]) is 36.1 mL/min/kg.
As for `Cn1cc(Nc2ncc(Cl)c(NC3CC4CNCC4C3)n2)cn1` (centres unmarked) [Ex. 11, 5-chloro-N^2-(1-methyl-1H-pyrazol-4-yl)-N^4-(octahydrocyclopenta[c]pyrrol-5-yl)pyrimidine-2,4-diamine], the T1/2 entry in data set [1] (Human liver microsomes 0.5 mg protein/mL, compound 5 μM, NADPH 1.0 mM, 37° C.) is “∞”. Moreover, in data set [2], the “Clearance (CL) after iv dosing” value came to 105 mL/min/kg, the F worked out at 18.13%, the AUC(0-t) came out at 146 ng·h/mL and the half-life was 151 min. For the same compound, the Vd in data set [2] amounted to 18.6 L/kg. The same compound had a pIC50 on JAK2 (h) of 6.75. This compound also gave a pIC50 at JAK1 (h) of 7.57. The compound further registered a half-life at 5 μM in data set [3] (setting [9]) of 17.7 min. The CLint scaled at 5 μM in data set [3] (setting [10]) is 140 mL/min/kg.
